Data published in patent US5041567A, “Antibacterial monic acid derivatives” (Beecham Group plc, priority 1982, dated 1991).
In brackets after ≈: the same amount, converted by molar mass. Where two headings read alike, the source gives them in different places.

Columns and labels:
M. bovis NCTC 10131 = assay: microbe, parasite or virus in culture; format: cell-based; conditions: NCTC10131, 144 h
Strep. uberis SPU1 = assay: MIC against veterinary bacteria in vitro; conditions: Streptococcus uberis, SPU1, 18 h
Description: (§1) The activity of the compounds of the Examples against various veterinarily important bacteria, was assayed in vitro using two-fold serial dilutions in Diagnostic Sensitivity Test Agar inoculated with 10^4 organisms.

[1] = system: M. suipneumoniae J2206/183^b; assay: MIC against mycoplasma in vitro; format: cell-based; conditions: Mesomycoplasma hyopneumoniae, 144 h
M. dispar NCTC 10125 = assay: MIC against mycoplasma in vitro; format: cell-based; conditions: 144 h; M. dispar NCTC 10125; 6 days, 37° C.; read-out: MIC
Bacillus subtilis 6633 = assay: MIC against human bacteria in vitro; format: cell-based; conditions: Bacillus subtilis 6633; 5% chocolated horse blood agar, 18 hours; read-out: MIC
M. suipneumoniae Str. 11 = assay: MIC against mycoplasma in vitro; format: cell-based; conditions: Mesomycoplasma hyopneumoniae
Staph. aureus Oxford = assay: MIC against human bacteria in vitro; format: cell-based; conditions: Staphylococcus aureus; Staph. aureus Oxford; 5% chocolated horse blood agar, 18 hours; read-out: MIC
Past. multocida PA1 = assay: MIC against veterinary bacteria in vitro; conditions: Pasteurella multocida, PA1, 18 h
Description: as §1

[2] = system: Corynebacterium xerosis 9755; assay: MIC against human bacteria in vitro; format: cell-based
M. suipneumoniae LABER = assay: MIC against mycoplasma in vitro; format: cell-based; conditions: Mesomycoplasma hyopneumoniae, 144 h
P. mirabilis 889 = assay: MIC against human bacteria in vitro; format: cell-based
[3] = system: Staph. aureus B4 (pen. resistant); assay: MIC against veterinary bacteria in vitro; conditions: Staphylococcus aureus, 18 h
Description: as §1

E. coli NCTC 10418 = assay: MIC against human bacteria in vitro; format: cell-based; conditions: Escherichia coli
[4] = system: Haemophilus influenzae Q1; assay: MIC against human bacteria in vitro; format: cell-based; conditions: Haemophilus influenzae Q1; 5% chocolated horse blood agar, 18 hours; read-out: MIC
Strep. faecalis I = assay: MIC against human bacteria in vitro; format: cell-based; conditions: Enterococcus faecalis
[5] = system: M. suipneumoniae PW/C/210; assay: MIC against mycoplasma in vitro; format: cell-based; conditions: Mesomycoplasma hyopneumoniae, 144 h
[6] = system: Corynebacterium pyogenes CY1; assay: MIC against veterinary bacteria in vitro; conditions: CY1, 18 h
Description: as §1

[7] = system: Neisseria catarrhalis 1502; assay: MIC against human bacteria in vitro; format: cell-based
[8] = system: Strep. pyogenes R80/421-A; assay: MIC against human bacteria in vitro; format: cell-based; conditions: Streptococcus pyogenes
[9] = system: M. hyosynoviae ATCC 25591; assay: MIC against mycoplasma in vitro; format: cell-based; conditions: 144 h
M. hyorhinis ATCC 25021 = assay: MIC against mycoplasma in vitro; format: cell-based; conditions: Mesomycoplasma hyorhinis, ATCC25021, 144 h
K. aerogenes A = assay: MIC against human bacteria in vitro; format: cell-based; conditions: Klebsiella aerogenes
Past. haemolytica PA5 = assay: MIC against veterinary bacteria in vitro; conditions: Mannheimia haemolytica, PA5, 18 h
Description: as §1

Strep. dysgalactiae SPD1 = assay: MIC against veterinary bacteria in vitro; conditions: Streptococcus dysgalactiae, SPD1, 18 h
Description: as §1

[10] = M. suipneumoniae J2206/183^b, 6 days, 37° C., read-out: MIC
[11] = 144 h, M. suipneumoniae Str. 11, 6 days, 37° C., read-out: MIC
[12] = Corynebacterium xerosis 9755, 5% chocolated horse blood agar, 18 hours, read-out: MIC
[13] = M. suipneumoniae LABER, 6 days, 37° C., read-out: MIC
[14] = NCTC10418, E. coli NCTC 10418, agar with 5% chocolated horse blood, 18 hours, 37° C., read-out: MIC
[15] = Strep. faecalis I, 5% chocolated horse blood agar, 18 hours, read-out: MIC
[16] = M. suipneumoniae PW/C/210, 6 days, 37° C., read-out: MIC
[17] = Neisseria catarrhalis 1502, 5% chocolated horse blood agar, 18 hours, read-out: MIC
[18] = Strep. pyogenes R80/421-A, 5% chocolated horse blood agar, 18 hours, read-out: MIC
[19] = M. hyosynoviae ATCC 25591, 6 days, 37° C., read-out: MIC
[20] = M. hyorhinis ATCC 25021, 6 days, 37° C., read-out: MIC
[21] = K. aerogenes A, 5% chocolated horse blood agar, 18 hours, read-out: MIC
[22] = Proteus mirabilis, P. mirabilis 889, 5% chocolated horse blood agar, 18 hours, read-out: MIC

Compound | MIC (M. bovis NCTC 10131) | MIC (Strep. uberis SPU1) | MIC [1, 10] | MIC (M. dispar NCTC 10125) | MIC (Bacillus subtilis 6633) | MIC (M. suipneumoniae Str. 11; [11]) | MIC (Staph. aureus Oxford) | MIC (Past. multocida PA1) | MIC [2, 12] | MIC (M. suipneumoniae LABER; [13]) | MIC [3] | MIC (E. coli NCTC 10418; [14]) | MIC [4] | MIC (Strep. faecalis I; [15]) | MIC [6] | MIC [7, 17] | MIC [8, 18] | MIC (K. aerogenes A; [21]) | MIC (Past. haemolytica PA5) | MIC (Strep. dysgalactiae SPD1) | further results
C/C(=C\c1ncc(-c2ccc([N+](=O)[O-])cc2)o1)C[C@@H]1OC[C@H](C[C@@H]2O[C@H]2[C@@H](C)[C@H](C)O)[C@@H](O)[C@H]1O [Example 3, 5-p-nitro-phenyl-2-(1-normon-2-yl)-oxazole A] | 0.025 µg/mL (≈ 0.0512 µM) | 0.039 µg/mL (≈ 0.0798 µM) | 0.25 µg/mL (≈ 0.512 µM) | 0.05 µg/mL (≈ 0.102 µM) | 0.5 µg/mL (≈ 1.02 µM) | 0.1 µg/mL (≈ 0.205 µM) | 0.2 µg/mL (≈ 0.409 µM) | 5 µg/mL (≈ 10.2 µM) | > 100 µg/mL | 0.1 µg/mL (≈ 0.205 µM) | 0.312 µg/mL (≈ 0.639 µM) | > 100 µg/mL | 0.1 µg/mL (≈ 0.205 µM) | 50 µg/mL (≈ 102 µM) | 80 µg/mL (≈ 164 µM) | 0.5 µg/mL (≈ 1.02 µM) | 0.5 µg/mL (≈ 1.02 µM) | 100 µg/mL (≈ 205 µM) | 10 µg/mL (≈ 20.5 µM) | 0.312 µg/mL (≈ 0.639 µM) | MIC (P. mirabilis 889; Proteus mirabilis, 889, 18 h): 50 µg/mL (≈ 102 µM); MIC [5, 16]: 0.1 µg/mL (≈ 0.205 µM); MIC [9, 19]: 0.25 µg/mL (≈ 0.512 µM); MIC (M. hyorhinis ATCC 25021; [20]): 0.05 µg/mL (≈ 0.102 µM)
C/C(=C\c1ncc(C)o1)C[C@@H]1OC[C@H](C[C@@H]2O[C@H]2[C@@H](C)[C@H](C)O)[C@@H](O)[C@H]1O [Example 14, 5-Methyl-2-(1-normon-2-yl) oxazole A] | 0.05 µg/mL (≈ 0.131 µM) | 2.5 µg/mL (≈ 6.55 µM) |  | 0.5 µg/mL (≈ 1.31 µM) | 4 µg/mL (≈ 10.5 µM) |  | 16 µg/mL (≈ 41.9 µM) | 10 µg/mL (≈ 26.2 µM) | > 128 µg/mL |  | 10 µg/mL (≈ 26.2 µM) | > 128 µg/mL | 2 µg/mL (≈ 5.24 µM) | > 128 µg/mL | > 80 µg/mL | 16 µg/mL (≈ 41.9 µM) | 32 µg/mL (≈ 83.9 µM) | > 128 µg/mL | > 80 µg/mL | 2.5 µg/mL (≈ 6.55 µM) | MIC [1]: 5 µg/mL (≈ 13.1 µM); MIC (M. suipneumoniae Str. 11; STR.11, 144 h): 2.5 µg/mL (≈ 6.55 µM); MIC (M. suipneumoniae LABER): 2.5 µg/mL (≈ 6.55 µM); MIC (P. mirabilis 889; [22]): > 128 µg/mL; MIC [5]: 2.5 µg/mL (≈ 6.55 µM); MIC [9]: 5 µg/mL (≈ 13.1 µM); MIC (M. hyorhinis ATCC 25021): 2.5 µg/mL (≈ 6.55 µM)
C/C(=C\c1ncc(-c2ccccc2)o1)C[C@@H]1OC[C@H](C[C@@H]2O[C@H]2[C@@H](C)[C@H](C)O)[C@@H](O)[C@H]1O [Example 1, 2-(1-normon-2-yl)-5-phenyloxazole A] | ≤ 0.01 µg/mL | 0.625 µg/mL (≈ 1.41 µM) | 1 µg/mL (≈ 2.25 µM) | 0.1 µg/mL (≈ 0.225 µM) | 2.5 µg/mL (≈ 5.64 µM) |  | 5 µg/mL (≈ 11.3 µM) | 10 µg/mL (≈ 22.5 µM) | > 100 µg/mL |  | 1.25 µg/mL (≈ 2.82 µM) | > 100 µg/mL | 1 µg/mL (≈ 2.25 µM) | ≥ 100 µg/mL | 80 µg/mL (≈ 180 µM) | 10 µg/mL (≈ 22.5 µM) | 1 µg/mL (≈ 2.25 µM) | > 100 µg/mL | 80 µg/mL (≈ 180 µM) | 0.625 µg/mL (≈ 1.41 µM) | MIC (M. suipneumoniae Str. 11; STR.11, 144 h): 0.5 µg/mL (≈ 1.13 µM); MIC (M. suipneumoniae LABER): 0.5 µg/mL (≈ 1.13 µM); MIC (P. mirabilis 889; [22]): > 100 µg/mL; MIC [5]: 0.5 µg/mL (≈ 1.13 µM); MIC [9]: 0.5 µg/mL (≈ 1.13 µM); MIC (M. hyorhinis ATCC 25021): 0.5 µg/mL (≈ 1.13 µM)
C/C(=C/c1ncc(-c2ccccc2)o1)C[C@@H]1OC[C@H](C[C@@H]2O[C@H]2[C@@H](C)[C@H](C)O)[C@@H](O)[C@H]1O [Example 2, 2-{3-[5-(2,3-epoxy-5-hydroxy-4-methylhexyl)-3,4-dihydroxytetrahydropyran-2-yl]-2-methylprop-1(Z)-enyl}-5-phenyloxazole] | 0.25 µg/mL (≈ 0.564 µM) | 5 µg/mL (≈ 11.3 µM) | 10 µg/mL (≈ 22.5 µM) | 2.5 µg/mL (≈ 5.64 µM) | 25 µg/mL (≈ 56.4 µM) | 10 µg/mL (≈ 22.5 µM) | 25 µg/mL (≈ 56.4 µM) | > 80 µg/mL |  | 10 µg/mL (≈ 22.5 µM) | 20 µg/mL (≈ 45.1 µM) |  | 12.5 µg/mL (≈ 28.2 µM) |  | > 80 µg/mL |  |  |  | > 80 µg/mL | 10 µg/mL (≈ 22.5 µM) | MIC ([2]; Corynebacterium xerosis, 9755, 18 h): > 50 µg/mL; MIC (P. mirabilis 889; Proteus mirabilis, 889, 18 h): > 50 µg/mL; MIC (E. coli NCTC 10418; NCTC10418, 18 h): > 50 µg/mL; MIC (Strep. faecalis I; 18 h): > 50 µg/mL; MIC [5, 16]: 5 µg/mL (≈ 11.3 µM); MIC ([7]; Neisseria, 1502, 18 h): > 50 µg/mL; MIC ([8]; R80/421A, 18 h): > 50 µg/mL; MIC [9, 19]: 5 µg/mL (≈ 11.3 µM); MIC (M. hyorhinis ATCC 25021; [20]): 5 µg/mL (≈ 11.3 µM); MIC (K. aerogenes A; 18 h): > 50 µg/mL
